Measurements taken from patent publication US10414811B2, “Protease-resistant lipidated GLP-1 analogs” (MEDIMMUNE LIMITED, priority 2015, dated 2019).
Where two headings read alike, the source gives them in different places. Numbered stars: 1 amine (or outer) side, 2 acyl side, 3 side chain; on linkers, the order of the positions; unused ones are H or OH. Square brackets hold non-standard residues; d marks the D form. Side chains are listed from the residue outwards. Peptide text beside a SMILES is read from it. * marks the point of attachment. γGlu = O=C(O)[C@H](CCC(=O)[*:2])N[*:1]; Palmitoyl = CCCCCCCCCCCCCCCC(=O)*; αMeF = C[C@](N)(Cc1ccccc1)C(=O)O; αMeK = C[C@](N)(CCCCN)C(=O)O; αMeS = C[C@](N)(CO)C(=O)O; Aib = CC(C)(N)C(=O)O

Assays:
[1] = target: T1, human glucagon receptor (GCGR) (Homo sapiens, UniProt P47871); experiment: cAMP assay, human GCGR cells; type: cell-based; settings: cAMP assay
T1 construct: expressed in transfected cells
T1 sequence (P47871 26-477): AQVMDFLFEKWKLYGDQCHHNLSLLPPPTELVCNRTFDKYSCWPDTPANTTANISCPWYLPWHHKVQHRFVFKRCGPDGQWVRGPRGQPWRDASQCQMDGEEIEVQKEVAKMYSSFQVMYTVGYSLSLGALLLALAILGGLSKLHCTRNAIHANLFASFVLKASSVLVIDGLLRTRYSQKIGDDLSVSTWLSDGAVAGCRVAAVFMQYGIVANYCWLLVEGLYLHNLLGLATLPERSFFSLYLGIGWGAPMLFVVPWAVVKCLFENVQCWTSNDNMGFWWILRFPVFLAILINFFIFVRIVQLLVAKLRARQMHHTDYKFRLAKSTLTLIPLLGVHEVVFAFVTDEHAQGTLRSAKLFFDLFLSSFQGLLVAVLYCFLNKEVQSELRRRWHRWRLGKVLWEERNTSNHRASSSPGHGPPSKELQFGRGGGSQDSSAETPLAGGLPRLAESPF
Experimental: (§1) Sample dilutions are made in duplicate.
(§2) A frozen cryo-vial of cells expressing the receptor of interest is thawed rapidly in a water-bath, transferred to pre-warmed assay buffer and spun at 240×g for 5 minutes. Cells are re-suspended in assay buffer at a batch-dependent optimized concentration (e.g. hGCGR cells at 2×10^5 cells/ml, hGLP-1R and hGIPR cells at 1×10^5 cells/ml).
(§3) To this, 5 μL cell suspension is added and the plates incubated at room temperature for 30 minutes.
(§4) cAMP levels are measured using a commercially available cAMP dynamic 2 HTRF kit (Cisbio, Cat #62AM4PEJ), following the two step protocol as per manufacturer's recommendations. In brief; anti-cAMP cryptate (donor fluorophore) and cAMP-d2 (acceptor fluorophore) are made up separately by diluting each 1/20 in conjugate & lysis buffer provided in the kit. 5 μL anti-cAMP cryptate is added to wells of the assay plate, and 5 μL cAMP-d2 is added to wells except non-specific binding (NSB) wells, to which conjugate and lysis buffer are added. […] EC50 values of the synthetic peptides determined in cAMP assays are then determined.
(§5) Data is transformed to % Delta F as described in the manufacturer's guidelines and analyzed by 4-parameter logistic fit to determine EC50 values. […] To compare the balance of activities at the GLP-1R and GCGR between different peptides and across different conditions, these can be correlated, where the EC50's are related to those of comparator peptides.

[2] = target: T2, human glucose-dependent insulinotropic peptide receptor (GIPR) (Homo sapiens, UniProt P48546); experiment: cAMP assay, human GIPR cells; type: cell-based; settings: cAMP assay
T2 construct: expressed in transfected cells
T2 sequence (P48546 22-466): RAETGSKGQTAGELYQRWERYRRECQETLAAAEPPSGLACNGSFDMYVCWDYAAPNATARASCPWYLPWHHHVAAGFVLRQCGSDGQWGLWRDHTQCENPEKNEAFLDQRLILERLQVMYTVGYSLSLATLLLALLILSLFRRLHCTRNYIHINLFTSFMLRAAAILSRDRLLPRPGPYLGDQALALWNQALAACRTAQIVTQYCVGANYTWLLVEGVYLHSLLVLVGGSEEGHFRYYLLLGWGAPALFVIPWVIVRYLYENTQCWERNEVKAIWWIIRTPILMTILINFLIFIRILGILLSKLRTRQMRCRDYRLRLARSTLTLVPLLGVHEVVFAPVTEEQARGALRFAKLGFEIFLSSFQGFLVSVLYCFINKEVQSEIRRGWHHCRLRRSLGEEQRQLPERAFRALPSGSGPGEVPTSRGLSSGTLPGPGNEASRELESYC
Experimental: as §1, §2, §3, §4, §5

[3] = first determination (n1), read-out: Primary assay EC50 Gluc-R (n1)
[4] = second determination (n2), read-out: Primary assay EC50 Gluc-R (n2)
[5] = first determination (n1), read-out: Primary assay EC50 GIP-R (n1)
[6] = second determination (n2), read-out: Primary assay EC50 GIP-R (n2)

| EC50 [1, 3] [nM] | EC50 [1, 4] [nM] | EC50 [2, 5] [nM] | EC50 [2, 6] [nM] | SMILES |
| --- | --- | --- | --- | --- |
| 390 | 240 | 480 | 480 | CC[C@H](C)[C@H](NC(=O)[C@H](Cc1ccccc1)NC(=O)[C@H](CCC(=O)O)NC(=O)[C@H](CCCCN)NC(=O)[C@H](C)NC(=O)[C@H](C)NC(=O)[C@H](CCC(N)=O)NC(=O)CNC(=O)[C@H](CCC(=O)O)NC(=O)[C@H](CC(C)C)NC(=O)[C@H](Cc1ccc(O)cc1)NC(=O)[C@H](CO)NC(=O)C(C)(C)NC(=O)[C@@H](NC(=O)[C@H](CC(=O)O)NC(=O)[C@H](CO)NC(=O)[C@@H](NC(=O)[C@H](Cc1ccccc1)NC(=O)[C@@H](NC(=O)CNC(=O)[C@H](CCC(=O)O)NC(=O)C(C)(C)NC(=O)[C@@H](N)Cc1c[nH]cn1)[C@@H](C)O)[C@@H](C)O)C(C)C)C(=O)N[C@@H](C)C(=O)N[C@@H](Cc1c[nH]c2ccccc12)C(=O)N[C@@H](CC(C)C)C(=O)N[C@H](C(=O)N[C@@H](CCCCN)C(=O)NCC(=O)N[C@@H](CCCNC(=N)N)C(N)=O)C(C)C [compound 22] (H-H[Aib]EGTFTSDV[Aib]SYLEGQAAKEFIAWLVKGR-NH2; N-terminus assumed) |
| ≥ 540 | ≥ 540 | ≥ 540 | ≥ 540 | CC[C@H](C)[C@H](NC(=O)[C@H](Cc1ccccc1)NC(=O)[C@H](CCC(=O)O)NC(=O)[C@H](CCCCN)NC(=O)[C@H](C)NC(=O)[C@H](C)NC(=O)[C@H](CCC(N)=O)NC(=O)CNC(=O)[C@H](CCC(=O)O)NC(=O)[C@H](CC(C)C)NC(=O)[C@H](Cc1ccc(O)cc1)NC(=O)[C@H](CO)NC(=O)[C@](C)(CO)NC(=O)[C@@H](NC(=O)[C@H](CC(=O)O)NC(=O)[C@](C)(CO)NC(=O)[C@@H](NC(=O)[C@H](Cc1ccccc1)NC(=O)[C@@H](NC(=O)CNC(=O)[C@H](CCC(=O)O)NC(=O)C(C)(C)NC(=O)[C@@H](N)Cc1c[nH]cn1)[C@@H](C)O)[C@@H](C)O)C(C)C)C(=O)N[C@@H](C)C(=O)N[C@@H](Cc1c[nH]c2ccccc12)C(=O)N[C@@H](CC(C)C)C(=O)N[C@H](C(=O)N[C@@H](CCCCN)C(=O)NCC(=O)N[C@@H](CCCNC(=N)N)C(N)=O)C(C)C [compound 23] |
| ≥ 100 | ≥ 100 | ≥ 100 | ≥ 100 | CC[C@H](C)[C@H](NC(=O)[C@](C)(Cc1ccccc1)NC(=O)[C@H](CCC(=O)O)NC(=O)[C@](C)(CCCCN)NC(=O)[C@H](C)NC(=O)[C@H](C)NC(=O)[C@H](CCC(=O)O)NC(=O)CNC(=O)[C@H](CCC(=O)O)NC(=O)[C@H](CC(C)C)NC(=O)[C@](C)(Cc1ccccc1)NC(=O)[C@H](CO)NC(=O)[C@](C)(CO)NC(=O)[C@@H](NC(=O)[C@H](CC(=O)O)NC(=O)[C@H](CCC(=O)O)NC(=O)[C@@H](NC(=O)[C@](C)(Cc1ccccc1)NC(=O)[C@H](CO)NC(=O)CNC(=O)[C@H](CCC(=O)O)NC(=O)C(C)(C)NC(=O)[C@@H](N)Cc1c[nH]cn1)[C@@H](C)O)C(C)C)C(=O)N[C@@H](C)C(=O)N[C@@](C)(Cc1ccccc1)C(=O)N[C@H](C(=O)N[C@H](C(=O)N[C@@](C)(CCCCN)C(=O)NCC(=O)NCC(N)=O)C(C)C)C(C)C [compound 28] (H-H[Aib]EGS[αMeF]TEDV[αMeS]S[αMeF]LEGEAA[αMeK]E[αMeF]IA[αMeF]VV[αMeK]GG-NH2) |
| ≥ 100 | ≥ 100 | ≥ 100 | ≥ 100 | CC[C@H](C)[C@H](NC(=O)[C@](C)(Cc1ccccc1)NC(=O)[C@H](CCC(=O)O)NC(=O)[C@](C)(CCCCN)NC(=O)[C@H](C)NC(=O)[C@H](C)NC(=O)[C@H](CCC(=O)O)NC(=O)CNC(=O)[C@H](CCC(=O)O)NC(=O)[C@H](CC(C)C)NC(=O)[C@](C)(Cc1ccccc1)NC(=O)[C@H](CO)NC(=O)[C@](C)(CO)NC(=O)[C@@H](NC(=O)[C@H](CC(=O)O)NC(=O)[C@@H](NC(=O)[C@@H](NC(=O)[C@](C)(Cc1ccccc1)NC(=O)[C@H](CO)NC(=O)CNC(=O)[C@H](CCC(=O)O)NC(=O)C(C)(C)NC(=O)[C@@H](N)Cc1c[nH]cn1)[C@@H](C)O)[C@@H](C)O)C(C)C)C(=O)N[C@@H](C)C(=O)N[C@@](C)(Cc1ccccc1)C(=O)N[C@H](C(=O)N[C@H](C(=O)N[C@@](C)(CCCCN)C(=O)NCC(=O)NCC(N)=O)C(C)C)C(C)C [compound 29] (H-H[Aib]EGS[αMeF]TTDV[αMeS]S[αMeF]LEGEAA[αMeK]E[αMeF]IA[αMeF]VV[αMeK]GG-NH2) |
| ≥ 31 | ≥ 31 | ≥ 31 | ≥ 31 | CC[C@H](C)[C@H](NC(=O)[C@](C)(Cc1ccccc1)NC(=O)[C@H](CCC(=O)O)NC(=O)[C@H](CCC(=O)O)NC(=O)[C@H](C)NC(=O)[C@H](C)NC(=O)[C@H](CCC(=O)O)NC(=O)CNC(=O)[C@H](CCC(=O)O)NC(=O)[C@H](CC(C)C)NC(=O)[C@](C)(Cc1ccccc1)NC(=O)[C@H](CO)NC(=O)[C@](C)(CO)NC(=O)[C@@H](NC(=O)[C@H](CC(=O)O)NC(=O)[C@H](CO)NC(=O)[C@@H](NC(=O)[C@](C)(Cc1ccccc1)NC(=O)[C@H](CO)NC(=O)CNC(=O)[C@H](CCC(=O)O)NC(=O)C(C)(C)NC(=O)[C@@H](N)Cc1c[nH]cn1)[C@@H](C)O)C(C)C)C(=O)N[C@@H](C)C(=O)N[C@@](C)(Cc1ccccc1)C(=O)N[C@H](C(=O)N[C@H](C(=O)N[C@@H](CCC(=O)O)C(=O)NCC(=O)NCC(N)=O)C(C)C)C(C)C [compound 44] (H-H[Aib]EGS[αMeF]TSDV[αMeS]S[αMeF]LEGEAAEE[αMeF]IA[αMeF]VVEGG-NH2) |
| ≥ 28 | ≥ 28 | ≥ 28 | ≥ 28 | CCCCCCCCCCCCCCCC(=O)N[C@@H](CCC(=O)NCCCC[C@H](NC(=O)[C@](C)(Cc1ccccc1)NC(=O)[C@H](CCC(=O)O)NC(=O)[C@](C)(CCCCN)NC(=O)[C@H](C)NC(=O)[C@H](C)NC(=O)[C@H](CCC(=O)O)NC(=O)CNC(=O)[C@H](CCC(=O)O)NC(=O)[C@H](CC(C)C)NC(=O)[C@](C)(Cc1ccccc1)NC(=O)[C@H](CO)NC(=O)[C@](C)(CO)NC(=O)[C@@H](NC(=O)[C@H](CC(=O)O)NC(=O)[C@H](CO)NC(=O)[C@@H](NC(=O)[C@](C)(Cc1ccccc1)NC(=O)[C@H](CO)NC(=O)CNC(=O)[C@H](CCC(=O)O)NC(=O)C(C)(C)NC(=O)[C@@H](N)Cc1c[nH]cn1)[C@@H](C)O)C(C)C)C(=O)N[C@@H](C)C(=O)N[C@@](C)(Cc1ccccc1)C(=O)N[C@H](C(=O)N[C@H](C(=O)N[C@@](C)(CCCCN)C(=O)NCC(=O)NCC(N)=O)C(C)C)C(C)C)C(=O)O [compound 77] (H-H[Aib]EGS[αMeF]TSDV[αMeS]S[αMeF]LEGEAA[αMeK]E[αMeF]K([γGlu-Palmitoyl])A[αMeF]VV[αMeK]GG-NH2) |
| ≥ 27 | ≥ 27 | ≥ 27 | ≥ 27 | CCCCCCCCCCCC(=O)N[C@@H](CCC(=O)N[C@@H](CCC(=O)NCCCC[C@H](NC(=O)[C@H](C)NC(=O)[C@H](C)NC(=O)[C@H](CCC(=O)O)NC(=O)CNC(=O)[C@H](CCC(=O)O)NC(=O)[C@H](CC(C)C)NC(=O)[C@](C)(Cc1ccccc1)NC(=O)[C@H](CO)NC(=O)[C@](C)(CO)NC(=O)[C@@H](NC(=O)[C@H](CC(=O)O)NC(=O)[C@H](CO)NC(=O)[C@@H](NC(=O)[C@](C)(Cc1ccccc1)NC(=O)[C@H](CO)NC(=O)CNC(=O)[C@H](CCC(=O)O)NC(=O)C(C)(C)NC(=O)[C@@H](N)Cc1c[nH]cn1)[C@@H](C)O)C(C)C)C(=O)N[C@@H](CCC(=O)O)C(=O)N[C@@](C)(Cc1ccccc1)C(=O)N[C@H](C(=O)N[C@@H](C)C(=O)N[C@@](C)(Cc1ccccc1)C(=O)N[C@H](C(=O)N[C@H](C(=O)N[C@@](C)(CCCCN)C(=O)NCC(=O)NCC(N)=O)C(C)C)C(C)C)[C@@H](C)CC)C(=O)O)C(=O)O [compound 129] |
